Laboratory results taken from BigSolDB 2.1.

Conditions: 298.2 K

O=C(c1ccccc1)c1ccc(O)cc1O
Conditions | solubility (mole fraction)
in 2-ethoxyethanol | 0.0308
in 2-isopropoxyethanol | 0.0333
in chlorobenzene | 0.0044
in cyclohexane | 5.07e-05
in diisopropyl ether | 0.00744
in ethylbenzene | 0.00408
in isooctane | 3.31e-05
in m-xylene | 0.00415
in methylcyclohexane | 6.92e-05
in n-butanol | 0.0109
in n-heptane | 3.82e-05
in n-heptanol | 0.018
in n-hexane | 3.26e-05
in n-hexanol | 0.0161
in n-octane | 4.43e-05
in n-octanol | 0.0183
in n-pentanol | 0.0125
in o-xylene | 0.00429
in p-xylene | 0.00448
in sec-butanol | 0.0103
in toluene | 0.00364
